Assay results reported in patent publication US5863916A, “8-aza, 6-aza and 6,8-diaza-1,4-dihydroquinoxaline-2,3-diones and the use thereof as antagonists for the glycine/NMDA receptor” (priority 1997, dated 1999).

Legend:
log P (literature) = type: physicochemical; conditions: from benzene to pyridine N-oxide
[1] = tested on: strychnine-insensitive glycine sites associated with NMDA receptors; conditions: cited from earlier work

| difference in log P (log P (literature)) | SMILES | inhibition of [3H]glycine binding [1] |
| --- | --- | --- |
| -3.84 | [O-][n+]1ccccc1 [pyridine N-oxide] | – |
| – | Oc1nc2cccnc2nc1O [pyrido (2,3-b)pyrazine-2,3-diol] | active inhibitor |
